Source: patent publication US3985740A, “7-[D-(α-amino-α-phenyl-, 2-thienyl- and 3-thienylacetamido)]-3-(5-methylthiazol-2-yl)carbonylthiomethyl-3-cephem -4-carboxylic acids” (Bristol-Myers Company, priority 1974, dated 1976)
≈ marks a conversion by molar mass, not a printed value. Where two headings read alike, the source gives them in different places.

Tests used:
D. pneumoniae A9585 = test: M.I.C. by tube dilution; type: cell-based; conditions: Streptococcus pneumoniae, D. pneumoniae + 5% serum, 50% Nutrient Broth - 45% Antibiotic Assay Broth, overnight 37° C.
Str. pyogenes A9604 = test: M.I.C. by tube dilution; type: cell-based; conditions: Streptococcus pyogenes, Str. pyogenes + 5% serum, 50% Nutrient Broth - 45% Antibiotic Assay Broth, overnight 37° C.
S. aureus Smith A9537 = test: M.I.C. by tube dilution; type: cell-based; conditions: Staphylococcus aureus, overnight 37° C., read-out: M.I.C.
[1] = test system: S. aureus BX 1633-2 A9606; test: M.I.C. by tube dilution; type: cell-based; conditions: Staphylococcus aureus, overnight 37° C., read-out: M.I.C.
[2] = test system: S. aureus methicillin-resistant A15097; test: M.I.C. by tube dilution; type: cell-based; conditions: Staphylococcus aureus, at 10^-^3 dilution, overnight 37° C.
S. aureus A9748 = test: M.I.C. by tube dilution; type: cell-based; conditions: Staphylococcus aureus, overnight 37° C., read-out: M.I.C.
Sal. enteritidis A9531 = test: M.I.C. by tube dilution; type: cell-based; conditions: Salmonella enterica, ENTERITIDIS; at 10^-^4 dilution; overnight 37° C.; read-out: M.I.C.
E. coli Juhl A15119 = test: M.I.C. by tube dilution; type: cell-based; conditions: Escherichia coli, JUHLA15119
E. coli A9675 = test: M.I.C. by tube dilution; type: cell-based; conditions: Escherichia coli, A9675; at 10^-^4 dilution; overnight 37° C.; read-out: M.I.C.
K. pneumoniae A9977 = test: M.I.C. by tube dilution; type: cell-based; conditions: Klebsiella pneumoniae, A9977; at 10^-^4 dilution; overnight 37° C.; read-out: M.I.C.
K. pneumoniae A15130 = test: M.I.C. by tube dilution; type: cell-based; conditions: Klebsiella pneumoniae, A15130, at 10^-^4 dilution, overnight 37° C.
Pr. mirabilis A9900 = test: M.I.C. by tube dilution; type: cell-based; conditions: Proteus mirabilis, A9900, at 10^-^4 dilution, overnight 37° C.
Pr. morganii A15153 = test: M.I.C. by tube dilution; type: cell-based; conditions: Morganella morganii
Ps. aeruginosa A9843A = test: M.I.C. by tube dilution; type: cell-based; conditions: Pseudomonas aeruginosa
Ser. marcescens A20019 = test: M.I.C. by tube dilution; type: cell-based; conditions: Serratia marcescens
[3] = Blood levels in the mouse after oral administration; type: in vivo; conditions: for concentration at 0.5 h / concentration at 1 h / concentration at 2 h / concentration at 3.5 h: blood, 100 mg/kg, read-out: Blood Level; for concentration at 1 h: 1 hr. after administration; for concentration at 2 h: 2 hrs. after administration; for concentration at 3.5 h: 3.5 hrs. after administration
Protocol: Blood levels in the mouse after oral administration were
determined with the following results:

[4] = test system: certain important pathogenic organisms; test: In vitro activity in the primary screening tests (overall); type: cell-based; conditions: in words
Source text: This combination of good oral absorption and high antibacterial activity in a cephalosporin while highly desirable is quite uncommon in compounds reported to date. […] To illustrate the unpredictability of oral absorption and antibacterial activity in a closely related series of cephalosporin compounds, Tables 1-8 below compare in vitro activities and oral absorption as tested in the mouse of the compounds of the formula ##SPC12##

[5] = SMITHA9537, + 50% serum, at 10^-^4 dilution
[6] = BX16332A9606, at 10^-^2 dilution
[7] = BX16332A9606, at 10^-^3 dilution
[8] = at 10^-^4 dilution, overnight 37° C., read-out: M.I.C.
[9] = mouse, oral, 100 mgm./kg., 0.5 hrs. after administration

Cc1cnc(C(=O)SCC2=C(C(=O)O)N3C(=O)C(NC(=O)[C@H](N)c4ccccc4)[C@H]3SC2)s1 (stereo partly drawn) [Compound 586, 7-[D-(-)-α-Aminophenylacetamido]-3-(5-methylthiazol-2-yl)carbonylthiomethyl-3-cephem-4-carboxylic acid]
MIC (D. pneumoniae A9585): 0.16 µg/mL
MIC (Str. pyogenes A9604): 0.3 µg/mL
MIC (S. aureus Smith A9537; [5]): > 63 µg/mL
MIC (S. aureus Smith A9537; SMITHA9537, at 10^-^4 dilution): 0.3 µg/mL (≈ 0.595 µM)
MIC [1, 6]: 4 µg/mL (≈ 7.93 µM)
MIC [1, 7]: 0.6 µg/mL (≈ 1.19 µM)
MIC [2]: 4 µg/mL (≈ 7.93 µM)
MIC (S. aureus A9748; A9748, at 10^-^2 dilution): 63 µg/mL (≈ 125 µM)
MIC (S. aureus A9748; A9748, at 10^-^3 dilution): 8 µg/mL (≈ 15.9 µM)
MIC (Sal. enteritidis A9531): 0.3 µg/mL (≈ 0.595 µM)
MIC (E. coli Juhl A15119): 2 µg/mL (≈ 3.96 µM)
MIC (E. coli A9675): 4 µg/mL (≈ 7.93 µM)
MIC (K. pneumoniae A9977): 4 µg/mL (≈ 7.93 µM)
MIC (K. pneumoniae A15130; read-out: M.I.C.): 32 µg/mL (≈ 63.4 µM)
MIC (Pr. mirabilis A9900; read-out: M.I.C.): 16 µg/mL (≈ 31.7 µM)
MIC (Pr. morganii A15153; [8]): 63 µg/mL (≈ 125 µM)
MIC (Ps. aeruginosa A9843A): > 125 µg/mL
MIC (Ser. marcescens A20019): > 125 µg/mL
concentration at 0.5 h [3, 9]: 34800 ng/mL
concentration at 1 h ([3]; mouse, oral, 100 mgm./kg.): 30700 ng/mL
concentration at 2 h ([3]; mouse, oral, 100 mgm./kg.): 13000 ng/mL
concentration at 3.5 h ([3]; mouse, oral, 100 mgm./kg.): 7000 ng/mL
oral absorption ([3]; in words): good oral absorption properties
Blood Level [3, 9]: 34.8 µg/mL
activity relative to cephalexin [4]: excellent activity relative to cephalexin

Cc1nc(C(=O)SCC2=C(C(=O)O)N3C(=O)C(NC(=O)[C@H](N)c4ccccc4)[C@H]3SC2)sc1C (stereo partly drawn) [Compound 587, 7-[D-α-aminophenylacetamido]-3-(4,5-dimethylthiazol-2-yl)carbonylthiomethyl-3-cephem-4-carboxylic acid]
MIC (D. pneumoniae A9585): 2.5 µg/mL
MIC (Str. pyogenes A9604): 2.5 µg/mL
MIC (S. aureus Smith A9537; [5]): > 63 µg/mL
MIC (S. aureus Smith A9537; SMITHA9537, at 10^-^4 dilution): 0.3 µg/mL (≈ 0.578 µM)
MIC [1, 6]: 1 µg/mL (≈ 1.93 µM)
MIC [1, 7]: 0.6 µg/mL (≈ 1.16 µM)
MIC [2]: 4 µg/mL (≈ 7.71 µM)
MIC (S. aureus A9748; A9748, at 10^-^2 dilution): 16 µg/mL (≈ 30.8 µM)
MIC (S. aureus A9748; A9748, at 10^-^3 dilution): 4 µg/mL (≈ 7.71 µM)
MIC (Sal. enteritidis A9531): 2.5 µg/mL (≈ 4.82 µM)
MIC (E. coli Juhl A15119; [8]): 16 µg/mL (≈ 30.8 µM)
MIC (E. coli A9675): 32 µg/mL (≈ 61.7 µM)
MIC (K. pneumoniae A9977): 32 µg/mL (≈ 61.7 µM)
MIC (K. pneumoniae A15130): > 125 µg/mL
MIC (Pr. mirabilis A9900): > 125 µg/mL
MIC (Pr. morganii A15153): > 125 µg/mL
MIC (Ps. aeruginosa A9843A): > 125 µg/mL
MIC (Ser. marcescens A20019): > 125 µg/mL
concentration at 0.5 h [3, 9]: 6300 ng/mL
concentration at 1 h ([3]; mouse, oral, 100 mgm./kg.): 8900 ng/mL
concentration at 2 h ([3]; mouse, oral, 100 mgm./kg.): 4300 ng/mL
concentration at 3.5 h ([3]; mouse, oral, 100 mgm./kg.): 2000 ng/mL

N[C@@H](C(=O)NC1C(=O)N2C(C(=O)O)=C(CSC(=O)c3cscn3)CS[C@H]12)c1ccccc1 (stereo partly drawn) [Compound 591, 7-[D-(-)α-aminophenylacetamido]-3-(thiazol-4-yl)carbonylthiomethyl-3-cephem-4-carboxylic acid]
MIC (D. pneumoniae A9585): 0.02 µg/mL
MIC (Str. pyogenes A9604): 0.02 µg/mL
MIC (S. aureus Smith A9537; [5]): 8 µg/mL
MIC (S. aureus Smith A9537; SMITHA9537, at 10^-^4 dilution): 0.3 µg/mL (≈ 0.612 µM)
MIC [1, 6]: 2 µg/mL (≈ 4.08 µM)
MIC [1, 7]: 0.6 µg/mL (≈ 1.22 µM)
MIC [2]: 2 µg/mL (≈ 4.08 µM)
MIC (S. aureus A9748; A9748, at 10^-^2 dilution): 16 µg/mL (≈ 32.6 µM)
MIC (S. aureus A9748; A9748, at 10^-^3 dilution): 4 µg/mL (≈ 8.15 µM)
MIC (Sal. enteritidis A9531): 0.16 µg/mL (≈ 0.326 µM)
MIC (E. coli Juhl A15119; [8]): 1 µg/mL (≈ 2.04 µM)
MIC (E. coli A9675): 4 µg/mL (≈ 8.15 µM)
MIC (K. pneumoniae A9977): 1 µg/mL (≈ 2.04 µM)
MIC (K. pneumoniae A15130; read-out: M.I.C.): 8 µg/mL (≈ 16.3 µM)
MIC (Pr. mirabilis A9900; read-out: M.I.C.): 1 µg/mL (≈ 2.04 µM)
MIC (Pr. morganii A15153; [8]): 32 µg/mL (≈ 65.2 µM)
MIC (Ps. aeruginosa A9843A): > 125 µg/mL
MIC (Ser. marcescens A20019): 125 µg/mL (≈ 255 µM)
concentration at 0.5 h [3, 9]: 6500 ng/mL
concentration at 1 h ([3]; mouse, oral, 100 mgm./kg.): 7900 ng/mL
concentration at 2 h ([3]; mouse, oral, 100 mgm./kg.): 4400 ng/mL
concentration at 3.5 h ([3]; mouse, oral, 100 mgm./kg.): 3200 ng/mL
